Legend:
[1] = system: UMSCC1 cells; experiment: Flow cytometry for cleaved caspase-3 (apoptosis), UMSCC1; assay type: cell-based, human; details: UMSCC1, inhibitor vs DMSO, 72 hours, p<0.05
Procedure: Flow cytometry for Cleaved Caspase-3. Lentivirally transduced cells were plated at equal densities and collected 48 hours later. Cells were fixed and prepped following the BD FITC Active Caspase-3 Apoptosis kit protocol (BD Biosciences). Adenovirally transduced cells were prepped with an Alexa-Fluor 647 conjugated cleaved-caspase 3 antibody to account for GFP-positivity (Cell Signaling Technologies (9602)). Analysis was performed on a BD FacsCanto and data analyzed on FlowJo software (Tree Star, Ashland, Oreg., USA). Experiments were performed 3 times with standard error of the mean (SEM) represented.
IRAK1 inhibitor. UMSCC1 cells were plated at equal densities and IRAK1 inhibitor (IRAK-1/4 inhibitor, 15409, Sigma-Aldrich, St. Louis, Mo., USA) added the same day for caspase-3 flow cytometry experiments. DMSO was added in equal volume for a control.
(§1) Cells and media were collected 72 hours later and prepared and analyzed as above. For the time-course experiment, cells were plated and inhibitor was added the following day, with protein collected at 24, 48, and 72 hours and analyzed by western blot for IRAK1 inhibition.

[2] = system: melanoma cells; details: in vitro and in vivo, references [20, 24]; cited from earlier work
[3] = system: MDS; details: references [20, 24]; cited from earlier work
[4] = system: IRAK1 and IRAK4; details: reference [24]; cited from earlier work
[5] = target: T1, IRAK1 (Homo sapiens, UniProt P51617); experiment: Western blot for IRAK1 activation (phospho-IRAK1 Thr209) in HNSCC cell lines; assay type: cell-based; details: 10 μM, 24-72 hours post-treatment, UMSCC1 and UMSCC47 cells
T1 construct: endogenous in cells; host or cells: UMSCC1 and UMSCC47 cells
Procedure: Western blotting. Whole cell lysates were harvested using Laemmli buffer and a total of 20 μg of protein was analyzed as described previously. Membranes were probed with DEK (1:1000, BD Biosciences, San Jose, Calif., USA), IRAK1 (1:1000, Santa Cruz Biotechnology, Dallas, Tex., USA (sc-7883)), TRAF6 (1:1000, Santa Cruz (sc-7221)), phospho-IRAK1 (Thr209, 1:800, Assay Biotechnology Company (A1074), Sunnyvale, Calif., USA), phospho-p38 (1:500, Cell Signaling Technologies (4361)), p38 (1:1000, Cell Signaling Technologies (9212)), phospho-ERK1/2 (1:1000, Cell Signaling Technologies (4377)), ERK1/2 (1:1000, Cell Signaling Technologies (4695)), phospho-IKKa/r3 (1:500, Cell Signaling Technologies (2697)), IKKa (1:1000, Cell Signaling Technologies (2682)), phospho-hcBa (1:500, Cell Signaling Technologies (9246)), hcBa (1:1000, Cell Signaling Technologies (4812)), a-tubulin-HRP (1:10,000 Cell Signaling Technologies (9099)), actin (1:10,000 a gift from James Lessard), and GAPDH (1:1000, Cell Signaling Technologies (5174)).
IRAK1 inhibitor. […]
as §1

T1 sequence (P51617 whole entry): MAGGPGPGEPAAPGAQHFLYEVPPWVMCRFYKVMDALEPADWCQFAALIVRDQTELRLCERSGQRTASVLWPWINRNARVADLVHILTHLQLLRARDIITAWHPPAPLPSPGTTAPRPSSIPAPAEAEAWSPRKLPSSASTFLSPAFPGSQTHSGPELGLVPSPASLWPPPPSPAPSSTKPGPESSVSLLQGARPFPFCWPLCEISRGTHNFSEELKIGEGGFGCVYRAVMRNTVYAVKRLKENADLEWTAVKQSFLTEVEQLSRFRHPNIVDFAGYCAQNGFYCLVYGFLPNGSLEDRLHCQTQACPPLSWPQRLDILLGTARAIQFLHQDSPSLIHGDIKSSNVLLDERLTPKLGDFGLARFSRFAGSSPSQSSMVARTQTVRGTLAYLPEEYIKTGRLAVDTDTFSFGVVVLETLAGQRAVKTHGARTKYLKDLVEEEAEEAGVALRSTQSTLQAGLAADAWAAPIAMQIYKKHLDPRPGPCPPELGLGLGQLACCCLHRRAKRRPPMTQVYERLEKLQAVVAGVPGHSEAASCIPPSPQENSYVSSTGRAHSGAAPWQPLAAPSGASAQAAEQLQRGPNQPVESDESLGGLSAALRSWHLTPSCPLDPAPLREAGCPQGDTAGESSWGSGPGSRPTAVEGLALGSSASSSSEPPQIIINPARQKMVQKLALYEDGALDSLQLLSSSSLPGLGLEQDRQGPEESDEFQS

For `O=C(Nc1nc2ccccc2n1CCN1CCOCC1)c1cccc([N+](=O)[O-])c1` [IRAK-1/4 inhibitor, N-(2-morpholinylethyl)-2-(3-nitrobenzoylamido)-benzimidazole], the “apoptosis (cleaved caspase-3)” value [1] is given as “Significantly increased apoptosis”, the “apoptosis in melanoma cells” value [2] is given as “increase apoptosis” and the “signaling and cell viability in MDS” value [3] is given as “inhibit signaling and cell viability”. The kinase selectivity [4] was “selective for IRAK1 and IRAK4” and the “activation of IRAK1 (phosphorylation of IRAK1)” value [5] was “attenuated activation of IRAK1”.
